According to publication PMC3885546, “Structural Determinants of the 5′-Methylthioinosine Specificity of Plasmodium Purine Nucleoside Phosphorylase” (PLoS ONE, 2014):
Positions count from the first letter of the chain named. Where two headings read alike, the source gives them in different places.

Experiments:
TgPNP = settings: cited from earlier work; for Km / kcat: substrate = label
PfPNP Asp206Ala = biological target: T1, PfPNP Asp206Ala (Plasmodium falciparum, UniProt Q8I3X4, D206A); assay: Substrate kinetics, coupled assay; type: biochemical; set-up: key: (-): Activity not detected under the experimental conditions; settings: substrate = label
T1 construct: made in house; host or cells: Escherichia coli Top 10
T1 sequence (Q8I3X4 1-245 D206A): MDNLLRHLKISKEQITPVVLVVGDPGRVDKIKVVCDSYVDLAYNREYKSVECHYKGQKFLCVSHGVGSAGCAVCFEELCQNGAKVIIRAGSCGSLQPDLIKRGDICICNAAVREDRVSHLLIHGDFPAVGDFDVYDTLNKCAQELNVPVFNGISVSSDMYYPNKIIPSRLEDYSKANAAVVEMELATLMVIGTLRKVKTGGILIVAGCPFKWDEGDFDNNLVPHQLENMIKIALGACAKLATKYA
Protocol: (§1) Kinetic assays were completed in 50 mM KH2PO4 at pH 7.4 measuring phosphorylysis of inosine or MTI by PNP in a coupled reaction with 60 milliunits/ml xanthine oxidase to convert hypoxanthine to uric acid. Formation of uric acid was measured at 293 nm wavelength (E293 = 12.9 mM^−1 cm^−1), [20]. In cases where activity for MTI was low, increased protein concentration (10 µg/ml) was used to check enzyme function. Assays were performed with excess substrate in the presence of inhibitors. Inhibition studies measured both initial (Ki) and slow onset inhibition (Ki*) for inhibitors. The initial onset inhibition was analyzed by using the following equation: ν ο = (k cat×S)/(K m(1+I/Ki)+S), ν ο is the steady state rate, k cat catalytic rate, S is substrate concentration, Km is Michealis constant for inosine, I is inhibitor concentration, and Ki is the equilibrium dissociation constant.

PfPNP Arg45Ala = biological target: T2, PfPNP Arg45Ala (Plasmodium falciparum, UniProt Q8I3X4, R45A); assay: Substrate kinetics, coupled assay; type: biochemical; set-up: key: (-): Activity not detected under the experimental conditions; settings: substrate = label
T2 construct: made in house; host or cells: Escherichia coli Top 10
T2 sequence (Q8I3X4 1-245 R45A): T1 sequence (Q8I3X4 1-245 D206A) with R45A, A206D
Protocol: as §1

PfPNP Val73Phe = biological target: T3, PfPNP Val73Phe (Plasmodium falciparum, UniProt Q8I3X4, V73F); assay: Substrate kinetics, coupled assay; type: biochemical; set-up: key: (-): Activity not detected under the experimental conditions; settings: substrate = label
T3 construct: made in house; host or cells: Escherichia coli Top 10
T3 sequence (Q8I3X4 1-245 V73F): T1 sequence (Q8I3X4 1-245 D206A) with V73F, A206D
Protocol: as §1

PfPNP Met183Ala = biological target: T4, PfPNP Met183Ala (Plasmodium falciparum, UniProt Q8I3X4, M183A); assay: Substrate kinetics, coupled assay; type: biochemical; set-up: key: (-): Activity not detected under the experimental conditions; settings: substrate = label
T4 construct: made in house; host or cells: Escherichia coli Top 10
T4 sequence (Q8I3X4 1-245 M183A): T1 sequence (Q8I3X4 1-245 D206A) with M183A, A206D
Protocol: as §1

PfPNP (wild type) = biological target: T5, PfPNP (wild type) (Plasmodium falciparum, UniProt Q8I3X4); assay: Substrate kinetics, xanthine oxidase coupled phosphorolysis assay; type: biochemical
T5 construct: made in house; host or cells: Escherichia coli Top 10
T5 sequence (Q8I3X4 1-245): T1 sequence (Q8I3X4 1-245 D206A) with A206D
Protocol: as §1

PfPNP Val73Ser = biological target: T6, PfPNP Val73Ser (Plasmodium falciparum, UniProt Q8I3X4, V73S); assay: Substrate kinetics, coupled assay; type: biochemical; settings: for Km / kcat: substrate = label
T6 construct: made in house; host or cells: Escherichia coli Top 10
T6 sequence (Q8I3X4 1-245 V73S): T1 sequence (Q8I3X4 1-245 D206A) with V73S, A206D
Protocol: as §1

PfPNP Val66Ser = biological target: T7, PfPNP Val66Ser (Plasmodium falciparum, UniProt Q8I3X4, V66S); assay: Substrate kinetics, coupled assay; type: biochemical; settings: for Km / kcat: substrate = label
T7 construct: made in house; host or cells: Escherichia coli Top 10
T7 sequence (Q8I3X4 1-245 V66S): T1 sequence (Q8I3X4 1-245 D206A) with V66S, A206D
Protocol: as §1

Molecule	Km (TgPNP; ref Chaudhary, et al. [18]) [µM]	kcat (TgPNP; ref Chaudhary, et al. [18]) [s⁻¹]	kcat (PfPNP Asp206Ala)	kcat (PfPNP Arg45Ala)	Km (PfPNP Val73Phe)	kcat (PfPNP Val73Phe)	kcat/Km (PfPNP Val73Phe)	kcat (PfPNP Met183Ala)	Km (PfPNP Val73Ser) [µM]	kcat (PfPNP Val73Ser) [s⁻¹]	Km (PfPNP Val66Ser) [µM]	kcat (PfPNP Val66Ser) [s⁻¹]	also measured
5′-methylthioinosine	31 ± 3	0.03 ± 0.00	(-)	(-)	(-)	(-)	(-)	(-)	2100	0.02 ± 0	0.7 ± 0.7	0.21 ± 0.05	efficiency for MTI when compared to inosine (TgPNP): < 0.5%; Km (PfPNP Asp206Ala): (-); kcat/Km (PfPNP Asp206Ala): (-); Km (PfPNP Arg45Ala): (-); kcat/Km (PfPNP Arg45Ala): (-); kcat/Km (PfPNP Val73Phe; listed as MTI): no activity; Km (PfPNP Met183Ala): (-); kcat/Km (PfPNP Met183Ala): (-); kcat/Km (PfPNP Met183Ala; listed as MTI): no detectable activity; kcat (PfPNP (wild type); substrate = label): 0.83 ± 0.03 s⁻¹; Km (PfPNP (wild type); substrate = label, 50 mM KH2PO4 pH 7.4, mean ± SD): 8.8 ± 0.2 µM
OC[C@H]1O[C@@H](n2cnc3c(O)ncnc32)[C@H](O)[C@@H]1O [Inosine, inosine]	13 ± 1	2.6 ± 0.0	0.04 ± 0.01 s⁻¹	0.05 ± 0.03 s⁻¹	(-)	(-)	(-)	0.4 ± 0.3 s⁻¹	5	0.2 ± 0.0	78 ± 4	1.4 ± 1.7	Ino/MTI kcat/Km Ratio (TgPNP; ref Chaudhary, et al. [18]): 230; Km (PfPNP Asp206Ala; read-out: Km): 63 ± 6 µM; Km (PfPNP Arg45Ala; read-out: Km): 470 ± 291 µM; Km (PfPNP Met183Ala; read-out: Km): 260 ± 64 µM; Ino/MTI kcat/Km Ratio (PfPNP (wild type)): 1.6; Ino/MTI kcat/Km Ratio (PfPNP Val73Ser): 4100; Ino/MTI kcat/Km Ratio (PfPNP Val66Ser): 0.06
